This note sets out measurements from patent US20250382305A1 (PTC THERAPEUTICS, INC., priority 2022, published 2025).

As a reminder, the IC50 is the concentration needed to halve the response being measured.

One assay concerns ATXN3 pre-mRNA. Description: RT-qPCR Assay to Quantify Exon 4 Skipping in ATXN3 pre-mRNA in Cells. Format: cell-based. To be noted: percent exon 4 skipping in ATXN3 pre-mRNA, RT-qPCR of cell lysates; average IC50. The gist of the method: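 IC50 derives from a dose-response fit of percent exon 4 skipping, quantified by RT-qPCR on crude lysates. Compounds tested as 7-point 3.16-fold dilutions in duplicate; cells (10,000/well) were exposed for 24 h at 37 °C before lysis.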

Assay [1] concerns Total ATXN3 (tATXN3) protein. Kind of assay: Endogenous Total ATXN3 (tATXN3) Protein Assay (MSD immunoassay of cell lysates). In kind it is cell-based. To be noted: average IC50, total ATXN3 protein in cell lysate after 48 h with compound (Table 1). The gist of the method: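 By electrochemiluminescent MSD sandwich immunoassay (mouse monoclonal capture, rabbit monoclonal and SULFO-TAG anti-rabbit detection), endogenous ATXN3 was quantified in lysates of cells treated 48 h at 37° C at 10,000 cells/well. Treatment used a 7-point 3.16-fold duplicate dilution series, with average IC50 grouped into star categories.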

With “2-((1R,2S,6R)-6-amino-2-methylcyclohex-3-en-1-yl)-3-bromo-5-chloro-N-(thiophen-2-ylmethyl)thieno[3,2-b]pyridin-7-amine and 2-((1S,2R,6S)-6-amino-2-methylcyclohex-3-en-1-yl)-3-bromo-5-chloro-N-(thiophen-2-ylmethyl)thieno[3,2-b]pyridin-7-amine [Compound 402]”, the IC50 (with ATXN3 pre-mRNA; in assay [1]) was ≤ 30 nM each time.

Take `N[C@H]1CC=CC[C@@H]1c1sc2c(NCc3cccs3)cc(Cl)nc2c1C#CC[C@@H](O)CO` [Compound 211, (R)-5-(2-((1S,6S)-6-aminocyclohex-3-en-1-yl)-5-chloro-7-((thiophen-2-ylmethyl)amino)thieno[3,2-b]pyridin-3-yl)pent-4-yne-1,2-diol]: the IC50 (with ATXN3 pre-mRNA; in assay [1]) was ≤ 30 nM in each case.

In the case of `N[C@@H]1CCCO[C@H]1c1c(Br)c2nc(Cl)cc(NCc3ccco3)c2n1C(F)F` [Compound 426, 2-((2R,3R)-3-aminotetrahydro-2H-pyran-2-yl)-3-bromo-5-chloro-1-(difluoromethyl)-N-(furan-2-ylmethyl)-1H-pyrrolo[3,2-b]pyridin-7-amine], the IC50 in the assay on ATXN3 pre-mRNA lay within 30 to 300 nM; in assay [1] it was 300 to 1000 nM.

Consider `N[C@@H]1CCCO[C@H]1c1sc2c(NCc3ccccc3F)cc(Cl)nc2c1Br.N[C@H]1CCCO[C@@H]1c1sc2c(NCc3ccccc3F)cc(Cl)nc2c1Br` (mixture of isomers) [Compound 29, 2-((2R,3R)-3-aminotetrahydro-2H-pyran-2-yl)-3-bromo-5-chloro-N-(2-fluorobenzyl)thieno[3,2-b]pyridin-7-amine and 2-((2S,3S)-3-aminotetrahydro-2H-pyran-2-yl)-3-bromo-5-chloro-N-(2-fluorobenzyl)thieno[3,2-b]pyridin-7-amine], for which the IC50 (in the assay on ATXN3 pre-mRNA; in assay [1]) was 30 to 300 nM throughout.

As for “6-((1R,2R)-2-aminocyclohexyl)-N-benzyl-2-chloro-7-methylthieno[3,2-d]pyrimidin-4-amine or 6-((1S,2S)-2-aminocyclohexyl)-N-benzyl-2-chloro-7-methylthieno[3,2-d]pyrimidin-4-amine [Compound 48]”, the IC50 (with ATXN3 pre-mRNA; in assay [1]) was 30 to 300 nM throughout.

On to `N[C@H]1CC=CC[C@@H]1c1sc2c(NCc3nccs3)nc(Cl)nc2c1Cl` [Compound 340, 6-((1S,6S)-6-aminocyclohex-3-en-1-yl)-2,7-dichloro-N-(thiazol-2-ylmethyl)thieno[3,2-d]pyrimidin-4-amine], for which the IC50 (in the assay on ATXN3 pre-mRNA; in assay [1]) was 30 to 300 nM each time.

Regarding `N[C@H]1CCCN(c2ccccc2)[C@@H]1c1sc2c(NCc3cccs3)cc(Cl)nc2c1Br` (mixture of isomers) [Compound 124, 2-((2R,3R)-3-amino-1-phenylpiperidin-2-yl)-3-bromo-5-chloro-N-(thiophen-2-ylmethyl)thieno[3,2-b]pyridin-7-amine and 2-((2S,3S)-3-amino-1-phenylpiperidin-2-yl)-3-bromo-5-chloro-N-(thiophen-2-ylmethyl)thieno[3,2-b]pyridin-7-amine], the IC50 (in the assay on ATXN3 pre-mRNA; in assay [1]) was > 1000 nM each time.

With `N[C@H]1CC=CC[C@@H]1c1sc2c(NCc3cccs3)cc(Cl)nc2c1C#Cc1cccnc1` [Compound 307, 2-((1S,6S)-6-aminocyclohex-3-en-1-yl)-5-chloro-3-(pyridin-3-ylethynyl)-N-(thiophen-2-ylmethyl)thieno[3,2-b]pyridin-7-amine], the IC50 (with ATXN3 pre-mRNA; in assay [1]) was 30 to 300 nM throughout.

Consider `N[C@H]1CCC[C@@H]1c1sc2c(NCc3cccs3)cc(Cl)nc2c1Br` [Compound 8, 2-((1S,2S)-2-aminocyclopentyl)-3-bromo-5-chloro-N-(thiophen-2-ylmethyl)thieno[3,2-b]pyridin-7-amine], for which the IC50 (in the assay on ATXN3 pre-mRNA; in assay [1]) was ≤ 30 nM in each case.

For `N[C@@H]1CC=CC[C@H]1c1sc2c(NCc3ccncc3)nc(Cl)nc2c1Cl` [Compound 440, 6-((1R,6R)-6-aminocyclohex-3-en-1-yl)-2,7-dichloro-N-(pyridin-4-ylmethyl)thieno[3,2-d]pyrimidin-4-amine], the IC50 with ATXN3 pre-mRNA was 300 to 1000 nM; in assay [1] it was > 1000 nM.

With `N[C@H]1CCCCC[C@@H]1c1sc2c(NCc3cccs3)cc(Cl)nc2c1Br` [Compound 75, 2-((1S,2S)-2-aminocycloheptyl)-3-bromo-5-chloro-N-(thiophen-2-ylmethyl)thieno[3,2-b]pyridin-7-amine], the IC50 (in the assay on ATXN3 pre-mRNA; in assay [1]) was 30 to 300 nM each time.

Take `N[C@H]1CCCO[C@@H]1c1sc2c(NCc3cccs3)cc(Cl)nc2c1Cl` [Compound 18, 2-[(2S,3S)-3-aminotetrahydropyran-2-yl]-3,5-dichloro-N-(2-thienylmethyl)thieno[3,2-b]pyridin-7-amine]: the IC50 (in the assay on ATXN3 pre-mRNA; in assay [1]) was ≤ 30 nM in each case.

`N[C@@H]1CCCCC[C@H]1c1sc2c(NCc3cccs3)cc(Cl)nc2c1I` [Compound 157, 2-((1R,2R)-2-aminocycloheptyl)-5-chloro-3-iodo-N-(thiophen-2-ylmethyl)thieno[3,2-b]pyridin-7-amine]: the IC50 (in the assay on ATXN3 pre-mRNA; in assay [1]) was > 1000 nM each time.

For “(2-((1S,2S)-2-aminocyclohexyl)-5-chloro-7-((thiophen-2-ylmethyl)amino)thieno[3,2-b]pyridin-3-yl)methanol and (2-((1R,2R)-2-aminocyclohexyl)-5-chloro-7-((thiophen-2-ylmethyl)amino)thieno[3,2-b]pyridin-3-yl)methanol [Compound 360]”, the half-maximal inhibitory concentration (IC50) (in the assay with ATXN3 pre-mRNA; in assay [1]) was 30 to 300 nM in each case.

With `Cc1c([C@H]2CC=CC[C@@H]2N)sc2c(NCc3ccccc3)nc(Cl)nc12` [Compound 326, 6-((1S,6S)-6-aminocyclohex-3-en-1-yl)-N-benzyl-2-chloro-7-methylthieno[3,2-d]pyrimidin-4-amine], the IC50 (in the assay with ATXN3 pre-mRNA; in assay [1]) was 30 to 300 nM in each case.

In the case of `CC#CCNc1cc(Cl)nc2c(I)c([C@H]3CCCC[C@@H]3N)sc12` [Compound 283, 2-((1S,2S)-2-aminocyclohexyl)-N-(but-2-yn-1-yl)-5-chloro-3-iodothieno[3,2-b]pyridin-7-amine], the IC50 (in the assay with ATXN3 pre-mRNA; in assay [1]) was 30 to 300 nM each time.

Take `N[C@H]1COCC[C@@H]1c1sc2c(NCc3nccs3)cc(Cl)nc2c1Cl` [Compound 337, 2-((3R,4S)-3-aminotetrahydro-2H-pyran-4-yl)-3,5-dichloro-N-(thiazol-2-ylmethyl)thieno[3,2-b]pyridin-7-amine]: the IC50 (in the assay on ATXN3 pre-mRNA; in assay [1]) was 30 to 300 nM throughout.

For the compound “2-((1R,2R)-2-amino-5,5-dimethylcyclohexyl)-3-bromo-5-chloro-N-(thiophen-2-ylmethyl)thieno[3,2-b]pyridin-7-amine and 2-((1S,2S)-2-amino-5,5-dimethylcyclohexyl)-3-bromo-5-chloro-N-(thiophen-2-ylmethyl)thieno[3,2-b]pyridin-7-amine [Compound 149]”, the IC50 (with ATXN3 pre-mRNA; in assay [1]) was 30 to 300 nM throughout.

For `N[C@@H]1CCCO[C@H]1c1c(I)c2nc(Cl)nc(NCc3cccs3)c2n1C(F)F` [Compound 416, 6-((2R,3R)-3-aminotetrahydro-2H-pyran-2-yl)-2-chloro-5-(difluoromethyl)-7-iodo-N-(thiophen-2-ylmethyl)-5H-pyrrolo[3,2-d]pyrimidin-4-amine], the IC50 (with ATXN3 pre-mRNA; in assay [1]) was 30 to 300 nM each time.
